Assay results taken from patent publication US5654296A, “Condensed heterocyclic compounds, their production and use” (priority 1994, dated 1997).
Counter-ions that a name gives are not always drawn.

Experiments:
serotonine (5-HT) uptake = experiment: Activity to inhibit serotonine (5-HT) uptake; assay type: biochemical; conditions: rat whole brain; 3H-5-HT 10 nM; 37° C.; pH 7.4; read-out: 5-HT uptake inhibitory activity (IC50 μM)
Experimental: (a) Activity to inhibit serotonine (5-HT) uptake
The experiment was performed in accordance with the method of Hyttel et al. [Psychopharmacology 60, 13, 1978]. The whole brain of a rat was homogenized in 40 volumes of ice-cooled 0.32M sucrose solution containing 10 μM pargyline and, then, centrifuged (600×G) for 10 minutes. The supernatant was centrifuged (2500×G) for 55 minutes to provide a pellet. This pellet was suspended in Krebs-Ringer-phosphate buffer (pH 7.4; 122 mM NaCl, 4.82 mM KCl, 0.972 mM CaCl2, 1.21 mM MgSO4, 12.7 mM Na2 HPO4, 2.97 mM NaH2 PO4, 0.162 mM EDTA sodium, 10 mM glucose, 1.14 mM ascorbic acid) saturated with a mixed gas (95% O and 5% CO2). To 900 μl of this suspention was added a solution of the test drug (10 μl) in DMSO and the mixture was incubated at 37° C. for 5 minutes. Then, 100 μl of ^3 H-5-HT (final concentration 10 nM) was added and the mixture was further incubated at 37° C. for 5 minutes. This reaction mixture was filtered under suction using a GF/B filter and the filter was washed with 4 ml of the above-mentioned buffer. The radioactivity on the filter was measured by the liquid scintillation method.
The amount of the drug which caused a 50% decrease in 5-HT uptake is shown as 50% inhibitory activity (IC50) in Table 42.

[1] = system: 45Ca2+ uptake (veratrine-stimulated, rat cerebral cortex crude synaptosome fraction); experiment: 45Ca2+ uptake inhibition experiment; assay type: biochemical; conditions: 30 μM veratrine, 37° C., 10 minutes, read-out: 45Ca2+ uptake inhibitory activity (IC50 μM)
Experimental: The rat cerebral cortex was homogenized in 10 volumes of ice-cooled 0.32M sucrose solution to prepare a crude synaptosome fraction (100×G, 10 min., 12000×G, 20 min.). […] To 900 μl of the homogenate was added a DMSO solution of the test drug (10 μl). The mixture was incubated at 37° C. for 10 minutes, followed by addition of 100 μl of a veratrine solution (containing 0.18 uci ^45 Ca^2+) at a final veratrine concentration of 30 μM. The mixture was incubated at 37° C. for 10 minutes, quenched with 4 ml of ice-cooled EGTA solution (120 mM sodium chloride, 5 mM potassium chloride, 5 mM EGTA, pH=7.5) and suction-filtered using a GF/B filter. The filter was washed twice with 4 ml each of a washing solution (132 mM sodium chloride, 5 mM potassium chloride, 1.3 mM magnesium chloride, 1.2 mM calcium, chloride, 20 mM Tris base, pH 7.5) and the radioactivity of […] was measured by the liquid scintillation method.
The ^45 Ca^2+ uptake inhibition rate was calculated by means of the following equation. [formula] A: The ^45 Ca^2+ uptake after 10 minutes' stimulation with 30 μM veratrine in the presence of the test drug
B: The ^45 Ca^2+ uptake in the absence of veratrine and in the presence of the test drug
C: The ^45 Ca^2+ uptake after 10 minutes' stimulation with 30 μM veratrine in the absence of the test drug
D: The ^45 Ca^2+ uptake in the absence of the test drug and in the absence of veratrine

[2] = target: T1, GnRH receptors (bovine pituitary anterior lobe membrane fraction) (Bos taurus, UniProt P32236); experiment: 125I-leuprolerin GnRH receptor binding inhibition test, bovine pituitary anterior lobe membrane fraction; conditions: 4° C., 90 minutes, read-out: Binding inhibitory activity (IC50 μM) Bovine
T1 construct: A bovine pituitary anterior lobe membrane fraction containing GnRH receptors was prepared; from tissue; host or cells: bovine pituitary anterior lobe, membrane fraction
T1 sequence (P32236 1-328): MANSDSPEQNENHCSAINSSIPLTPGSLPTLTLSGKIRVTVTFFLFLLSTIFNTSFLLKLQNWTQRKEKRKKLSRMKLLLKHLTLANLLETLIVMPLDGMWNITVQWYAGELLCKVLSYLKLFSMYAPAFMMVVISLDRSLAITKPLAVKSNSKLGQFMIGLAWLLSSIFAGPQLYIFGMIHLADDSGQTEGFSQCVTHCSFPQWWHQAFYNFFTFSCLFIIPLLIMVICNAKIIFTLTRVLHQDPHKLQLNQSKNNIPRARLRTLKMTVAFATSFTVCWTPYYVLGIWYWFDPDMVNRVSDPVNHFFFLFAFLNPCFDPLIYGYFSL
Experimental: Ten (10) μl of 3×10^4 M aqueous leuprolerin solution and 10 μl of 0.01 mg/ml lactoperoxidase were taken in a tube and 10 μl of Na^125 I solution (37 MBq) was added. After stirring, 10 μl of 0.001% H2 O2 was added and the reaction was conducted at room temperature for 20 minutes. Then, 700 μl of 0.05% TFA solution was added to the tube to terminate the reaction and the reaction mixture was purified by reverse-phase HPLC. The HPLC conditions are shown below. ^125 I-leuprolerin was eluted after a retention time of 26-27 minutes. (C) Preparation of a Bovine Pituitary Anterior Lobe Membrane Fraction Containing GnRH Receptors A bovine pituitary anterior lobe membrane fraction containing GnRH receptors was prepared by the same procedure as described under (B). However, a 10,000×G centrifugation supernatant was recentrifuged at 100,000×G for 1 hour to provide the membrane fraction pellet. […] For the rat and human membrane fractions prepared in (B) and (D), each membrane fraction was diluted with assay buffer to a concentration of 200 μg/ml and distributed in 188 μl portions into tubes. As to the bovine membrane fraction prepared in (C), the membrane fraction was diluted with assay buffer to 750 μg/ml and distributed in 188 μl portions into tubes. […] Where the rat or bovine pituitary anterior lobe membrane fraction was used, the reaction was conducted at 4° C. for 90 minutes. Where the membrane fraction of the CHO with human GnRH receptors expressed was used, the reaction was carried out at 25° C. for 60 minutes. […] After filtration, the radioactivity of ^125 I-leuprolerin remaining on the filter was measured with a γ-counter. The expression (TB-SB)/(TB-NSB)×100 (where SB=radioactivity with the compound added, TB=maximum bound radioactivity, NSB=nonspecifically bound radioactivity) was calculated to find the binding inhibition rate of each test compound.

[3] = target: T2, GnRH receptors (rat pituitary anterior lobe membrane fraction) (Rattus norvegicus, UniProt P30969); experiment: 125I-leuprolerin GnRH receptor binding inhibition test, rat pituitary anterior lobe membrane fraction; conditions: 4° C., 90 minutes, read-out: Binding inhibitory activity (IC50 μM) Rat
T2 construct: the anterior lobe of the pituitary gland was isolated and washed with ice-cooled homogenate buffer; from tissue; host or cells: anterior lobe of the pituitary gland, male Wistar rats (8 weeks old), membrane fraction
T2 sequence (P30969 1-327): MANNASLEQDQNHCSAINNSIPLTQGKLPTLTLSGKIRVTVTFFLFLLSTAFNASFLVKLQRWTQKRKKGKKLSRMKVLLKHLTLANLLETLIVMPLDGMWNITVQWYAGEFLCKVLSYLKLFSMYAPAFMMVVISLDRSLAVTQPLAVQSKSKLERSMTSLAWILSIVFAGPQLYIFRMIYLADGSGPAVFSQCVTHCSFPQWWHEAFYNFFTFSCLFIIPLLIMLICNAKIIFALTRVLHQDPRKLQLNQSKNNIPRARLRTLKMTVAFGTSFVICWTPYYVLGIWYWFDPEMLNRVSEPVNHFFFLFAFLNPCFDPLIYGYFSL
Experimental: Ten (10) μl of 3×10^4 M aqueous leuprolerin solution and 10 μl of 0.01 mg/ml lactoperoxidase were taken in a tube and 10 μl of Na^125 I solution (37 MBq) was added. After stirring, 10 μl of 0.001% H2 O2 was added and the reaction was conducted at room temperature for 20 minutes. Then, 700 μl of 0.05% TFA solution was added to the tube to terminate the reaction and the reaction mixture was purified by reverse-phase HPLC. The HPLC conditions are shown below. ^125 I-leuprolerin was eluted after a retention time of 26-27 minutes. (B) Preparation of a Rat Pituitary Anterior Lobe Membrane Fraction Containing GnRH Receptors […] The pituitary tissue was floated in 2 ml of the homogenate buffer and homogenized using a Polytron homogenizer. The homogenate was centrifuged at 700×G for 15 minutes. The supernatant was taken in an ultracentrifuge tube and centrifuged at 100,000×G for 1 hour to provide a membrane fraction pellet. […] The membrane fraction recovered as a pellet was resuspended in 10 ml of assay buffer, divided into portions, preserved at -80° C. and thawed when needed. […] For the rat and human membrane fractions prepared in (B) and (D), each membrane fraction was diluted with assay buffer to a concentration of 200 μg/ml and distributed in 188 μl portions into tubes. As to the bovine membrane fraction prepared in (C), the membrane fraction was diluted with assay buffer to 750 μg/ml and distributed in 188 μl portions into tubes. […] Where the rat or bovine pituitary anterior lobe membrane fraction was used, the reaction was conducted at 4° C. for 90 minutes. Where the membrane fraction of the CHO with human GnRH receptors expressed was used, the reaction was carried out at 25° C. for 60 minutes. […] After filtration, the radioactivity of ^125 I-leuprolerin remaining on the filter was measured with a γ-counter. The expression (TB-SB)/(TB-NSB)×100 (where SB=radioactivity with the compound added, TB=maximum bound radioactivity, NSB=nonspecifically bound radioactivity) was calculated to find the binding inhibition rate of each test compound.

| SMILES | IC50 (serotonine (5-HT) uptake) [µM] | IC50 [1] [µM] | IC50 [2] [µM] | IC50 [3] [µM] |
| --- | --- | --- | --- | --- |
| c1ccc(N2CCN(CCC3(c4ccccc4)COCc4ccccc43)CC2)cc1 (centres unmarked) [Example I-6, 4-[2-(4-Phenylpiperazin-1-yl)ethyl]-4-phenylisochroman dihydrochloride] | 1 | 0.32 |  |  |
| COc1ccc2c(c1)CCC1(CCCCN1CCCC1(c3ccccc3)COCc3ccccc31)C2=O (centres unmarked) [Example I-48, 3,4-Dihydro-6-methoxy-1'-[3-(4-phenylisochroman-4-yl)propyl]spiro[1-oxonaphthalene-2-(1H),2'-piperidine] hydrochloride] |  |  | 10 | 0.4 |
| Clc1ccccc1CNCCCC1(c2ccccc2)COCc2ccccc21 (centres unmarked) [Example I-20, 4-[3-(o-Chlorobenzylamino)propyl]-4-phenylisochroman hydrochloride] |  | 0.94 |  |  |
| C1=NCC(CCCN2CCN(c3ccccc3)CC2)(c2ccccc2)c2ccccc21 (centres unmarked) [II-8, 4-Phenyl-4-[3-(4-phenylpiperazin-1-yl)propyl]isoquinoline] | 0.41 | 1.84 |  |  |
| CN1Cc2ccccc2C(CCCN2CCC(c3ccccc3)CC2)(c2ccc(Cl)cc2)C1 (centres unmarked) [IV-13, 4-(p-Chlorophenyl)-2-methyl-4-[3-(4-phenylpiperidino)propyl]-1,2,3,4-tetrahydroisoquinoline trihydrochloride] | 0.13 | 0.32 |  |  |
| c1ccc(CNCCCC2(c3ccccc3)COCc3ccccc32)cc1 (centres unmarked) [Example I-18, 4-[3-(Benzylamino)propyl]-4-phenylisochroman hydrochloride] | 0.8 | 1.32 |  |  |
| Clc1ccc(C2(CCCN3CCN(c4ccccc4)CC3)CN=Cc3ccccc32)cc1 (centres unmarked) [II-13, 4-(p-Chlorophenyl)-3,4-dihydro-4-[3-(4-phenylpiperazino)propyl]isoquinolinetrihydrochloride] | 0.14 | 1.29 |  |  |
| Fc1ccccc1CNCCCC1(c2ccccc2)COCc2ccccc21 (centres unmarked) [Example I-19, 4-[3-(o-Fluorobenzylamino)propyl]-4-phenylisochroman hydrochloride] |  | 1.05 |  |  |
| Fc1ccc(N2CCN(CCCC3(c4ccccc4)CNCc4ccccc43)CC2)cc1 (centres unmarked) [III-9, 4-{3-[4-(p-fluorophenyl)piperazin-1-yl]propyl}-1,2,3,4-tetrahydro-4-phenylisoquinoline dihydrochloride] | 0.17 | 1.44 |  |  |
| c1ccc(N2CCN(CCCC3(c4ccccc4)CNCc4ccccc43)CC2)cc1 (centres unmarked) [III-8, 1,2,3,4-Tetrahydro-4-phenyl-4-[3-(4-phenylpiperazin-1-yl)propyl]isoquinoline trihydrochloride] | 0.16 | 1.63 |  |  |
| CN(CCCC1(c2ccccc2)CNCc2ccccc21)Cc1ccccc1 (centres unmarked) [III-7, 4-[3-(N-Benzyl-N-methyl)aminopropyl]-1,2,3,4-tetrahydro-4-phenylisoquinoline dihydrochloride] | 0.2 | 1.77 |  |  |
| CN(CCCC1(c2ccccc2)CN=Cc2ccccc21)Cc1ccccc1 (centres unmarked) [II-7, 4-[3-(N-Benzyl-N-methyl)aminopropyl]-3,4-dihydro-4-phenylisoquinoline dihydrochloride] | 0.88 | 0.46 |  |  |
| c1ccc(C2(CCCNCc3ccccn3)COCc3ccccc32)cc1 (centres unmarked) [Example I-23, 4-[3-(2-Picolylamino)propyl]-4-phenylisochroman dihydrochloride] |  | 0.5 |  |  |
| c1ccc(C2(CCCN3CCCCCC3)COCc3ccccc32)cc1 (centres unmarked) [Example I-15, 4-[3-(1-Hexamethyleneimino)propyl]-4-phenylisochroman hydrochloride] |  | 1.25 |  |  |
| CN1Cc2ccccc2C(CCCN2CCN(c3ccccc3)CC2)(c2ccccc2)C1 (centres unmarked) [IV-7, 1,2,3,4-Tetrahydro-2-methyl-4-phenyl-4-[3-(4-phenylpiperazin-1-yl)propyl]isoquinoline trihydrochloride] | 0.18 | 1.71 |  |  |
